From patent US8258123B2, “C-19 steroids for cosmetic and further uses” (ErlaCos GmbH, priority 2007, dated 2012)
“Also recorded” adds a separate entry of the source.

Columns and labels:
androgen receptor (AR) = assay: Binding affinity to the androgen receptor against DHT as reference compound
Experimental: The compounds used according to the present invention preferably have a binding affinity to the androgen receptor (AR) higher than DHT; more preferably the binding affinity is high by having affinity specific to AR in a range of IC50≧500 nM, preferably IC50≧100 nM and more preferably IC50≧50 nM, wherein IC50 is defined as the concentration of the compound required to reduce specific binding of a reference compound, 5α-dihydrotestosterone (DHT), by 50%. The IC50-values can be determined by known methods using radioactively labelled DHT as reference compound, for example by a standard dextran-coated charcoal adsorption method as described by Raynaud et al., J. Steroid Biochem. 6, 615-622 (1975), using 1 nM reference concentrations of radiolabeled [^3H]-DHT, or by similar IC50 determination methods described in the literature. Because the concentration of AR in the target cell is very low, typically in the nanomolar range approximately, differences in binding constants to the order contemplated in the present invention are significant.

5α-reductase [1] = assay: 5α-reductase inhibition; type: biochemical
Source text: According to the present invention, the use may correspondingly be determined by selecting the C-19 steroid compound having the aforementioned effects or properties (iii) to (vi) alone or in combination. These effects or properties (iii) to (vi) can be measured by correspondingly known methods. For example, 5α-reductase activity can be measured by a method described by Mitamura et al., Analytical Sciences 21, 1241-1244 (2005). The use according to the present invention may be further determined by a suitable administrated amount of the compound, and by an appropriate application condition, such as type of user/patient, or type of target site or organ enabling the aforementioned effects or properties (iii) to (vi) alone or in combination.

[2] = system: skin over the predilection areas of cellulite; assay: Topical treatment of the skin over the predilection areas of cellulite; type: in vivo
Source text: The border between the two layers is made up of collagen fibres. Strengthening this border by increasing its collagen content by stimulating the fibroblasts to produce more collagen leads to a marked improvement of the appearance of cellulite.

[3] = system: apocrine sweat glands in the axilla; assay: Topical application to the axilla, body odour; type: in vivo
Source text: (§1) Not only in theory but also in practice the compounds of the present invention and in particular 4-OHT and its related analogous compounds are the ideal anabolic substances. […] This can be deduced from three different topical applications to the skin.
The majority of glands relevant for body odor are situated in the subcutaneous tissue. It is therefore difficult to apply effective substances directly. To this end a substance is preferably included facilitating the penetration into the skin.

sebaceous glands = assay: Topical application to the face and other acne-prone skin areas; type: in vivo
Source text: as §1

hair follicles = assay: Topical treatment of body skin areas, hair growth; type: in vivo
Source text: The situation in the body regions other than the scalp however is different. Sometimes hair growing excessively on other parts of the body is a nuisance. They are conventionally removed by depilation or epilation. Hot wax epilation restores the growth of hair in many dorming hair follicles (telogen hair) thereby increasing the frequency and painfulness of hot wax epilation. Pubic and axillary hair is sparse or absent in CAIS. Corresponding cell cultures contain as androgen predominantly testosterone and only traces of DHT. Growth of unwanted hair in the corresponding body regions cannot be prevented by blocking of 5α-reductase. According to the present invention, this is possible by blocking the androgen receptor against DHT. In almost all hair follicles (with the exception of scalp, pubic and axillary hair) specific cells of the dermal papilla are driven by DHT to promote hair growth.

striae = assay: Topical treatment of striae; type: in vivo; conditions: suitable formulation containing 4-OHT
Source text: Striae have also been treated according to the invention with a suitable formulation containing 4-OHT. […] Whereas striae rubrae are more disturbing on a fair skin striae albae are a considerable problem for dark skin.

5α-reductase [4] = assay: Reduction by 5α-reductase
aromatase = molecular target: T1, aromatase (Homo sapiens, UniProt P11511); assay: Aromatization by aromatase
T1 sequence (P11511 1-503): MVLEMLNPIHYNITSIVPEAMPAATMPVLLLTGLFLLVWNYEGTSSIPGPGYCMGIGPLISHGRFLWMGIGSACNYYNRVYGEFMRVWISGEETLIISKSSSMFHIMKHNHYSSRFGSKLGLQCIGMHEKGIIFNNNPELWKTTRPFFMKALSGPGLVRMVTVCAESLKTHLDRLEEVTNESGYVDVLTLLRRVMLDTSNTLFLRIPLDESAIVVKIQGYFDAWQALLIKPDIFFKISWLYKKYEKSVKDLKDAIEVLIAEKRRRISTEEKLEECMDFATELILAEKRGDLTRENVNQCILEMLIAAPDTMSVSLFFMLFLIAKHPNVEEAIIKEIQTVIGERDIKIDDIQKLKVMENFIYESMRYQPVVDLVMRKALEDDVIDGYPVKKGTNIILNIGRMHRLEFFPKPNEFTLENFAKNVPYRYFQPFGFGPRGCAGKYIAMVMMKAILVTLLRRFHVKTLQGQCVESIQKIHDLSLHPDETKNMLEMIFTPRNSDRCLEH

forehead skin = conditions: applied to the forehead skin of patients with acne, 1% solution; cited from earlier work
[5] = loaded to solid lipid nanoparticles; cited from earlier work

SMILES	binding affinity to the AR compared with DHT (androgen receptor (AR))	inhibition of 5α-reductase (5α-reductase [1])	adipose tissue / adipocytes ([2]; topical)	topical formulation compared with 4-OHA ([2]; topical formulation, collagen content of the skin)	solidification of the skin ([2]; topical preparation, within four weeks)	concentration of collagen fibres ([2]; topical, skin areas over the buttocks)	androgenic effect after application to the skin ([2]; topical, hair growth or pimples)	effect on body odor of the combination with a penetration enhancer ([3]; combination with dimethyl isosorbide (Arlasolve DMI))	androgen dependent production of volatile fatty acids responsible for body odour ([3]; topical, axilla)	size and capability of sebaceous glands (sebaceous glands)	type of hair produced by the follicles (hair follicles; after six months)	growth of body hairs (hair follicles; body regions other than scalp)	striae rubrae and striae albae (striae)	thickness of the skin (striae)	5α-reduction (5α-reductase [4])	aromatization (aromatase)	sebum excretion rate (forehead skin)	increase in CPA absorption by the skin [5]
C[C@]12CC[C@H]3[C@@H](CCC4=C(O)C(=O)CC[C@@]43C)[C@@H]1CC[C@@H]2O [4-OHT, 4,17β-dihydroxyandrost-4-en-3-one]	higher affinity to the AR than DHT	able to inhibit this enzyme (probably both isoforms)	marked diminution and shrinkage of the adipocytes; also recorded: shrinkage of adipose tissue	superior than 4-OHA	considerable solidification of the skin	anabolically increases the concentration of collagen fibres	no androgenic effect whatsoever could be observed	Optimal results	immediately prevents the androgen dependent production of volatile fatty acids	reduces size and capability of sebaceous glands	most of the follicles are producing solely vellous hair	grow slower and less dense and in addition thinner and blonder	makes them disappear	increasing thickness of the skin	escapes aromatization or 5α-reduction	escapes aromatization or 5α-reduction		
CC(=O)O[C@]1(C(C)=O)CC[C@H]2[C@@H]3C=C(Cl)C4=CC(=O)[C@@H]5C[C@@H]5[C@]4(C)[C@H]3CC[C@@]21C [Cyproterone acetate, cyproterone acetate]																	not able to reduce the sebum excretion rate	2-3 fold
